Patent US20150132747A1, “Treatment of Neurodegeneration and Neuroinflammation” (BIOGEN IDEC MA INC., priority 2009, published 2015)
Structures can show the parent of a compound that is named as a salt.

How the values were obtained:
rat spinal cords (EAE) = assay: Histology and morphometry of lumbar spinal cord sections of EAE rats (GFAP, IBA-1, Luxol Fast Blue); assay type: in vivo
Procedure: Lumbar spinal cord sections were prepared as FFPE sections for immunohistochemistry and processed on DAKO autostainer using GFAP antibody (DAKO), IBA-1 (Wako), CD3 (DAKO). Aperio Spectrum Color Deconvolution software was used for morphometric analysis. […] Panels (a) and (b) are from a rat treated with vehicle alone at 5× and 20× magnification, respectively, while panels (c) and (d) are from a rat treated with 100 mg/kg DMF, shown at 5× and 20× magnification, respectively. […] Morphometry analysis of EAE spinal cords was performed with Aperio software. Histological alterations were quantified with Aperio Image Scope software v10.1. The Color Deconvolution algorithm was used to select intensity thresholds either for brown DAB staining (GFAP and IBA-1 Immunostains) or for bright turquoise blue staining (Luxol Fast Blue). Positive staining was determined by the percent of strong positive stained pixels for each intensity threshold. Three lumbar spinal cord sections were quantitated per rat and the values for percent strong positive pixels were averaged for the final intensity value.

primary rat astrocytes [1] = assay: Global gene expression analysis (Affymetrix GeneChip) in astrocytes treated with DMF; assay type: cell-based; details: p<10^−7 versus untreated astrocytes, FIG. 10
Procedure: Global analysis of gene expression in astrocytes treated with DMF was performed using the Affymetrix GeneChip technology. […] The resulting gene list was annotated using the Ingenuity IPA database. […] Specific genes involved in cytoprotection and glutathione metabolism, identified in this assay, include, but are not limited to, Gsta2, Gsta3, Gclc, Ggt1, Txnrd1, Srxn1, Sqstm1, and Nqo1.

Nrf2 [2] = assay: Nrf2 Western blotting, primary rat astrocytes; assay type: cell-based; details: total cell lysates, GAPDH control, FIG. 9
Procedure: (§1) Total cell lysates were prepared from the astrocyte cultures treated as indicated above. Nrf2 was detected by Western blotting. GAPDH was included as a housekeeping protein control.

Nrf2 [3] = assay: Nrf2 Western blotting, primary human astrocytes; assay type: cell-based; details: total cell lysates, GAPDH control, FIG. 9
Procedure: as §1

primary astrocytes = assay: Gene expression profiling of LPS stimulated primary astrocytes; assay type: cell-based, rat; details: LPS 0, 10, 100 ng/ml; DMF 0, 3, 10, 30 μM, FIG. 5
Procedure: Primary astrocytes were treated with LPS at 0, 10, and 100 ng/ml, as indicated, and also treated with DMF at 0, 3, 10, or 30 μM as indicated. The magnitude of expression of each gene under each condition was scaled from 0 to 1, so that differences in color represent changes in expression of each gene as the conditions varied. The darkest green color represents no detectable expression (0), while the brightest red color represents the highest expression measured for that gene (1). […] The induced expression of many of the markers was suppressed by DMF treatment.
Direct effects of BG00012 on specific astrocytic and microglial cells were tested in vitro using primary rat astrocytes and RAW264.7 macrophage cells.

[4] = tested on: rat EAE (MOG/IFA immunized Brown Norway rats); assay: Rat EAE model, clinical score; assay type: in vivo; details: FIG. 1A
Procedure: Female Brown Norway rats (Charles River Laboratories) were immunized intradermally at the base of the tail with MOG 1-125 100 ug/rat in IFA at day 0. Day 3 DMF (BG00012) qd 5, 25, 50, 100, 200 mg/kg delivered orally as a suspension in 0.8% HPMC. N=6 per group. Scoring 0=no disease, 1=tail paralysis, 2=hind limb weakness, 3=hind limb paralysis, 4=hind limb paralysis and forelimb weakness, 5=moribund or dead. Experimental in vivo procedures were performed in accordance with Institutional Animal Committee guidelines crEAE was induced by intradermal MOG/IFA immunization in Brown Norway rats. BG00012 was administered orally at a daily interval beginning three days after immunization. […] For the 100 mg/kg treatment group, average disease score at day 28 was 0.71 (n=6, SD=1.17) compared to 2.29 (n=6, SD=1.29) for the vehicle group.

primary rat astrocytes [5] = assay: Quantitative PCR of gene expression in primary cultured astrocytes, with or without LPS; assay type: cell-based
Procedure: Rat astrocytes from cortex, hippocampus and striatum (Lonza clontech) were cultured as described by manufacturers protocol. Limiting dilutions of DMF in DMSO were added to cultures for 6 or 24 hours and stimulated with E. Coli LPS (Sigma). RNA was prepared using QIAgen Rneasy method. […] It is also apparent from the data that NQO1 is induced at a higher level by exposure to DMF for 24 hrs compared to induction by a 6 hour exposure. Direct effects of BG00012 on specific astrocytic and microglial cells were tested in vitro using primary rat astrocytes and RAW264.7 macrophage cells.

[6] = tested on: human spinal cord astrocytes; assay: H2O2-induced Ca++ mobilization in human spinal cord astrocytes (Calcium4 dye); assay type: cell-based; details: Astrocyte, 24 hr MMF, 50 mM H2O2, FIG. 7C, read-out: EC50, protection against H2O2-induced Ca++ mobilization (non-linear regression)
Procedure: In another experiment, primary cultures of human spinal cord astrocytes were treated for 24 hr with a titration of MMF or DMSO as a diluent control. Following 24 hr incubation with compound, cells were washed 1× with HBSS and incubated with Calcium4 (Molecular Devices) loading dye. This dye permeates into cells and increases fluorescence upon binding of free intracellular Ca^++. Cells were then challenged with 50 mM H2O2 and monitored for changes in fluorescence. […] FIG. 7C.

[7] = tested on: human spinal cord astrocytes; assay: Glutathione, metabolic activity and viability of cultured human spinal cord astrocytes; assay type: cell-based; details: 24 hr MMF titration, FIG. 6C
Procedure: Primary cultures of human spinal cord astrocytes were treated for 24 hr with a titration of MMF or DMSO as a diluent control. Following 24 hr incubation with compound, cells were washed 1× with growth media and incubated with the cell-permeant substrate monochlorobimane. When bound to glutathione this substrate increases fluorescence. […] FIG. 6A. Similar MMF treated cells were also incubated with the cell permeant substrate resazurin, which increases fluorescence upon reduction to resorufin by cellular redox mechanisms and is used as a measure of cellular metabolic activity (CellTiter-Blue assay). […] FIG. 6B. To ensure the increases in glutathione and metabolic activity were not simply due to cellular proliferation in response to MMF treatment, parallel dishes of cells were incubated with calcein AM. Cellular esterases cleave this molecule to generate a fluorescent metabolite, which provides a measure of cell viability and relative total cell numbers. […] FIG. 6C.

[8] = tested on: human spinal cord astrocytes; assay: H2O2 challenge of human spinal cord astrocytes: viability, metabolism, ATP; assay type: cell-based; details: FIG. 8C
Procedure: In another experiment, primary cultures of human spinal cord astrocytes were treated for 24 hr with a titration of MMF or DMSO as a diluent control. Following 24 hr incubation with compound, cells were washed 1× with HBSS and challenged with […] H2O2 for two hours, then washed in normal growth media, then incubated for an additional 24 hours.

SMILES	activated astrocytes in grey matter of spinal cords (GFAP antibody) (rat spinal cords (EAE); 100 mg/kg DMF versus vehicle alone, FIG. 3)	myelin loss during EAE in rat spinal cords (Luxol Fast Blue morphometry) (rat spinal cords (EAE); FIG. 12)	expression of Nrf2 target genes (incl. glutathione metabolism genes) (primary rat astrocytes [1])	levels of Nrf2 (Western blotting), primary rat astrocytes (Nrf2 [2])	levels of Nrf2 (Western blotting), primary human astrocytes (Nrf2 [3])	LPS-induced expression of Ccl20, Ccl3, Ccl4, Cxcl1, Cxcl10, Cxcl2, Cxcl3, Cxcl6, IL1a, II1b, Tnf, Ifit3, Zc3h12a (primary astrocytes)	EAE disease ([4]; 200 mg/kg)	EAE symptoms ([4]; various doses (5-200 mg/kg qd oral from day 3))	LPS induced TNF expression (quantitative PCR) (primary rat astrocytes [5]; DMF 24 hours, LPS 0, 10, 30 ng/ml 4 hrs prior to harvest, FIG. 4B)	GFAP expression (quantitative PCR) (primary rat astrocytes [5]; DMF for 6 hrs and 24 hrs, FIG. 4A)	NQO1 expression (quantitative PCR) (primary rat astrocytes [5]; DMF for 6 hrs and 24 hrs, FIG. 4C)	EC50 [6]	cell viability and relative total cell numbers (calcein AM) [7]	cellular ATP levels at the highest concentration of MMF [8]
COC(=O)/C=C/C(=O)OC [DMF, dimethyl fumarate]	fewer activated astrocytes	diminishes myelin loss	activates expression of Nrf2 target genes	increase levels of Nrf2	increase levels of Nrf2	strongly suppressed	completely abrogated disease	reduced EAE symptoms in a dose-dependent manner	repressed by DMF in a dose dependent manner	inhibits GFAP expression in a concentration dependent manner	induces NQO1 expression in a concentration dependent manner	–	–	–
COC(=O)/C=C/C(=O)O [MMF, monomethyl fumarate]	–	–	–	–	–	–	–	–	–	–	–	5.4 µM	No substantial concentration-dependent changes	appeared to reduce cellular ATP levels
